Assay results: US20250011304A1, “CRYSTALLINE FORM OF N-(2-CHLORO-3-((5-CHLORO-3-METHYL-4-OXO-3,4-DIHYDROQUINAZOLIN-6-YL)AMINO)-4-FLUOROPHENYL)-3-FLUOROAZETIDINE-1-SULFONAMIDE” (Array BioPharma Inc., priority 2021, published 2025)
“Also recorded” adds a separate entry of the source.

How the values were obtained:
[1] = target: T1, full-length FLAG-tagged B-Raf(V600E) (Homo sapiens, UniProt P15056, V600E); test: BRAF V600E enzyme assay (TR-FRET competitive tracer displacement); assay type: binding; settings: 60 min, ambient temperature
T1 construct: 5 nM full-length, N-terminally FLAG-tagged B-Raf(V600E) (Origene Technologies, TP700031); purchased Origene Technologies TP700031
T1 sequence (P15056 whole entry V600E): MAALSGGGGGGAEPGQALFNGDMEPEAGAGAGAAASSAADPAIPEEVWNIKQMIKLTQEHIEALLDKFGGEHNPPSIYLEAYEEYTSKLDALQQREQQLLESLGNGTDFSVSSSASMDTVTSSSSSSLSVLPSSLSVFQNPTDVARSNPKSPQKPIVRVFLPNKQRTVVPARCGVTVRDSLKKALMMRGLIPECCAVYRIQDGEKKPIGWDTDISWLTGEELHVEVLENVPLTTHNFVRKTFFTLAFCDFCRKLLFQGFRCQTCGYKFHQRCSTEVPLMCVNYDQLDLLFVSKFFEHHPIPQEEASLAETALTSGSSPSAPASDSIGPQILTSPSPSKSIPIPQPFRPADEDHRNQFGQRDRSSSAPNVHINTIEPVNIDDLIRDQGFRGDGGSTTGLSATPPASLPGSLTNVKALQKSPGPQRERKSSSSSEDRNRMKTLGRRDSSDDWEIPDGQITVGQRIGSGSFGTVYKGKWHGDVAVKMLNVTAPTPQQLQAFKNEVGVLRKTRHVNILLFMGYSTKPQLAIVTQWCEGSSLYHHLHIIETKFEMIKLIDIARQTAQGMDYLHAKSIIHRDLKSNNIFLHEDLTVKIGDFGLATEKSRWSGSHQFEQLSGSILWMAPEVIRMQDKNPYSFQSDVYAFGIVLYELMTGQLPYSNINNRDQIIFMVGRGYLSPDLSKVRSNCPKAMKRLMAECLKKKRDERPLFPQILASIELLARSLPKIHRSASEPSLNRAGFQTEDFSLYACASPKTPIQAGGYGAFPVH
Description: A competitive displacement assay was configured for B-Raf that monitors the amount of a fluorescently-tagged “tracer” bound to B-Raf via TR-FRET from an anti-tag Eu-labeled antibody also bound to B-Raf. For full-length FLAG-tagged B-Raf(V600E), the assay mixtures consisted of 25 mM K^+HEPES, pH 7.4, 10 mM MgCl2, 0.01% Triton X-100, 1 mM DTT, 2% DMSO (from compound), 50 nM Tracer 1710 (ThermoFisher, PR9176A), 0.5 nM Eu anti-FLAG (M2)-cryptate Ab (Cisbio, 61FG2KLB) and 5 nM full-length, N-terminally FLAG-tagged B-Raf(V600E) (Origene Technologies, TP700031. N-(2-chloro-3-((5-chloro-3-methyl-4-oxo-3,4-dihydroquinazolin-6-yl)amino)-4-fluorophenyl)-3-fluoroazetidine-1-sulfonamide was diluted in DMSO across an 11-point dosing range created using a 3-fold serial dilution protocol at a top dose of 10 μM. The assay was run in 384-well, polystyrene, low-volume, non-treated, white microtiter plates (Costar 4512) in a final volume of 12 μL. Low control wells included 1 μM of a potent B-Raf inhibitor as a control. The assays were incubated at ambient temperature (typically 22° C.) for 60 min and then read on a PerkinElmer EnVision microplate reader using standard TRF settings (λEx=320 nm, λEm=615 & 665 nm). The ratioed counts (665 nm/615 nm) were converted to percent of control (POC) using the following equation:
[formula] • where: • xmax Average Uninhibited Controls • Xmin Average Background […]

MDR1 (P-gp) = target: T2, MDR1 (P-gp) (Homo sapiens, UniProt P08183); test: MDR1 LLC-PK1 permeability assay (efflux); assay type: in vitro ADME; settings: statement in background
T2 construct: expressed in transfected cells; host or cells: LLC-PK1
T2 sequence (P08183 whole entry, species assumed): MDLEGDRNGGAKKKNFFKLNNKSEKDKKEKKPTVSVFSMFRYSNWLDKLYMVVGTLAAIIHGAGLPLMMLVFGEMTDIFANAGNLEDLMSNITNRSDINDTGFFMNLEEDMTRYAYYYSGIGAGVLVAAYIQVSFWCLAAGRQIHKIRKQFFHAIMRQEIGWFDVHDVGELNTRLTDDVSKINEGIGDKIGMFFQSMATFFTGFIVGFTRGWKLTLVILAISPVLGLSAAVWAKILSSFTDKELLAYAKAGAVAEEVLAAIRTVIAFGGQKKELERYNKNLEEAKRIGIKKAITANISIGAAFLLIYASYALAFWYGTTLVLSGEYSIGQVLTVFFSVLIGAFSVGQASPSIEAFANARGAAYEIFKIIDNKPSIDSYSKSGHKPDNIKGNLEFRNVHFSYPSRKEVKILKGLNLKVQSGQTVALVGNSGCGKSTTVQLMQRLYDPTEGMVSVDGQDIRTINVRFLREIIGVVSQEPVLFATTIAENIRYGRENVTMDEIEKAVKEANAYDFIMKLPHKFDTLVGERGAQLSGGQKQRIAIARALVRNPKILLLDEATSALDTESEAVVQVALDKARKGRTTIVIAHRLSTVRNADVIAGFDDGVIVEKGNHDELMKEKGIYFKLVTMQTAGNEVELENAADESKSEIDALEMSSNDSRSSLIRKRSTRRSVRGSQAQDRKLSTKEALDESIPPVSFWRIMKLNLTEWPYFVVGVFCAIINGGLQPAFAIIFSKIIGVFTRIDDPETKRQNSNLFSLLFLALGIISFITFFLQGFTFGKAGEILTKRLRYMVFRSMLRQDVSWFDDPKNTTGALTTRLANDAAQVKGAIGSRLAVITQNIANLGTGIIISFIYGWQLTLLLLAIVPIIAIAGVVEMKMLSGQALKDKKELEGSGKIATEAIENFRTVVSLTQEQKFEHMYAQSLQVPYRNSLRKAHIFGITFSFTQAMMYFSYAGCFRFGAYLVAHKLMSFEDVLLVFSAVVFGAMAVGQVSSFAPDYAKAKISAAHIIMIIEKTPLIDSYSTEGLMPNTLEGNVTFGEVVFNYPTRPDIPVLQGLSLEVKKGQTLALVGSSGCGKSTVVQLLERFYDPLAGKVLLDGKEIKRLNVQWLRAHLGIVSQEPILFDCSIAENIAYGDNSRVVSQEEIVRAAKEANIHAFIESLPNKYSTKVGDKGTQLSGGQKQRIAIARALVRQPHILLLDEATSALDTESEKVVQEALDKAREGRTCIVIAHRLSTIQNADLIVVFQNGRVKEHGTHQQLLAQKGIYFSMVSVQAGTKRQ
Excerpt: (§1) Final organic concentration in the assay was 1%.
(§2) The efflux ratios for N-(2-chloro-3-((5-chloro-3-methyl-4-oxo-3,4-dihydroquinazolin-6-yl)amino)-4-fluorophenyl)-3-fluoroazetidine-1-sulfonamide (Compound 1) when tested in this assay were 2.1 (MDR1) and 4.2 (BCRP).

BCRP [2] = target: T3, BCRP (Homo sapiens, UniProt Q9UNQ0); test: BCRP MDCKII permeability assay (efflux); assay type: in vitro ADME; settings: statement in background
T3 construct: expressed in transfected cells; host or cells: MDCKII
T3 sequence (Q9UNQ0 1-655): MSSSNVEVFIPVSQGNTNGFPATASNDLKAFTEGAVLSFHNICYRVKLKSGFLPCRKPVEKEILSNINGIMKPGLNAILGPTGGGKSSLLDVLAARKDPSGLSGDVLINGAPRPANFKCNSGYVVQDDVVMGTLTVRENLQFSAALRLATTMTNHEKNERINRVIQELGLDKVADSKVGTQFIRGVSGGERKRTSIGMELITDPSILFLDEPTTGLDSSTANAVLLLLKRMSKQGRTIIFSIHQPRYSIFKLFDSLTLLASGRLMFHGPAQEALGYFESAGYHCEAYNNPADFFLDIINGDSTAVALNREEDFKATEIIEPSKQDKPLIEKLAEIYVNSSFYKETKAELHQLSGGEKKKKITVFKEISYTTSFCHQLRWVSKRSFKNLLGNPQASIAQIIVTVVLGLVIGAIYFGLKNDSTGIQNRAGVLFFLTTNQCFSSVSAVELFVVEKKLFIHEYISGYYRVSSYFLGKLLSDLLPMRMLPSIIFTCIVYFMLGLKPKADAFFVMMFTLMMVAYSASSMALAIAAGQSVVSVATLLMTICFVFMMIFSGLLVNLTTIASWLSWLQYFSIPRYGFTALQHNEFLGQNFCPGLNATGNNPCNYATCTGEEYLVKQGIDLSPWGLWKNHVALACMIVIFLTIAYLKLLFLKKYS
Excerpt: as §1, §2

[3] = PK (free brain-to-free plasma ratio) (mouse); assay type: in vivo; settings: male CD-1 mice, oral gavage 10 mg/kg, (B/P)*(Bfu/Pfu)
Description: The ability of N-(2-chloro-3-((5-chloro-3-methyl-4-oxo-3,4-dihydroquinazolin-6-yl)amino)-4-fluorophenyl)-3-fluoroazetidine-1-sulfonamide (Compound 1) to penetrate the BBB in mice was determined by evaluating the unbound brain-to-unbound plasma (also referred to as free brain-to-free plasma) concentration ratio in male CD-1 mice.
Brain compound levels were generated from oral mouse PK dosing with typical sampling times of 2, 4, 8, 12 and 24 hours post oral gavage dosing at 10 mg/kg. Brain samples were stored at −20±5° C. prior to analysis. Concentrations of Compound 1 in mouse brain homogenate were determined by liquid chromatography tandem mass spectrometry (LC-MS/MS) following protein precipitation with acetonitrile. A 12-point calibration curve, ranging from 0.5 to 10,000 ng/mL, was prepared in duplicate. […]
Brain-to-plasma ratios were calculated using the concentration of Compound 1 measured in the brain divided by the concentration of compound measured in the plasma. […] Free brain-to-free plasma ratios were calculated by multiplying the brain-to-plasma ratio by the in vitro brain homogenate free fraction divided by the in vitro plasma free fraction using the following equation: (B/P)*(Bfu/Pfu). […]

[4] = Physical stability analysis by PXRD; assay type: physicochemical; settings: for physical stability under accelerated stability conditions: 70° C./75% relative humidity (RH) for 8 days
Description: Powder X-ray Diffraction (PXRD) method for characteristic peak determination Powder X-ray diffraction analysis was conducted using a Bruker AXS D8 Endeavor diffractometer equipped with a Copper (Cu) radiation source. The divergence slit was set at 15 mm continuous illumination. Diffracted radiation was detected by a PSD-Lynx Eye detector, with the detector PSD opening set at 2.99 degrees. The X-ray tube voltage and amperage were set to 40 kV and 40 mA respectively. Data was collected in the Theta-Theta goniometer at the Cu wavelength (CuKα=[…]) from 3.0 to 40.0 degrees 2-Theta using a step size of 0.01 degrees and a step time of 1.0 second. The antiscatter screen was set to a fixed distance of 3.0 mm. Samples were rotated at 15/min during collection. Samples were prepared by placing them in a silicon low background sample holder and rotated during collection. Data were collected using Bruker DIFFRAC Plus software and analysis was performed by EVA diffract plus software. The PXRD data file was not processed prior to peak searching. Using the peak search algorithm in the EVA software, peaks selected with a threshold value of 1 were used to make preliminary peak assignments. To ensure validity, adjustments were manually made; the output of automated assignments was visually checked, and peak positions were adjusted to the peak maximum. Peaks with relative intensity of >3% were generally chosen. Typically, the peaks which were not resolved or were consistent with noise were not selected. A typical error associated with the peak position from PXRD stated in USP up to +/−0.2° 2-Theta (USP-941).
Table 5 details the differences between Form 1 and amorphous form.

[5] = Hygroscopicity (DVS water sorption and desorption); assay type: physicochemical; settings: for Hygroscopicity: DVS 0-90% RH; for Mass Gain at 25° C. and 60% RH / Mass Gain at 25° C. and 90% RH: DVS; for PXRD Post-DVS: solid form of powder remaining after DVS analysis
Description: Water sorption and desorption were analyzed with a DVS-Resolution. The microbalance was calibrated with a 100 mg standard weight on a monthly basis. About 8 mg of the compound was added to a sample pan and placed inside chamber A of the DVS-Resolution. Percent relative humidity was held at 0% for 1 hour, and increased to 90% in 10% increments, then ramped back to 0% in 10% increments. […] The powder material remaining following the DVS analysis was analyzed by PXRD to determine if a change in the diffraction pattern is observed.

BCRP [6] = target: T4, BCRP (Mus musculus, UniProt Q7TMS5); settings: reported by Mittapalli et al.; cited from earlier work
T4 sequence (Q7TMS5 1-657): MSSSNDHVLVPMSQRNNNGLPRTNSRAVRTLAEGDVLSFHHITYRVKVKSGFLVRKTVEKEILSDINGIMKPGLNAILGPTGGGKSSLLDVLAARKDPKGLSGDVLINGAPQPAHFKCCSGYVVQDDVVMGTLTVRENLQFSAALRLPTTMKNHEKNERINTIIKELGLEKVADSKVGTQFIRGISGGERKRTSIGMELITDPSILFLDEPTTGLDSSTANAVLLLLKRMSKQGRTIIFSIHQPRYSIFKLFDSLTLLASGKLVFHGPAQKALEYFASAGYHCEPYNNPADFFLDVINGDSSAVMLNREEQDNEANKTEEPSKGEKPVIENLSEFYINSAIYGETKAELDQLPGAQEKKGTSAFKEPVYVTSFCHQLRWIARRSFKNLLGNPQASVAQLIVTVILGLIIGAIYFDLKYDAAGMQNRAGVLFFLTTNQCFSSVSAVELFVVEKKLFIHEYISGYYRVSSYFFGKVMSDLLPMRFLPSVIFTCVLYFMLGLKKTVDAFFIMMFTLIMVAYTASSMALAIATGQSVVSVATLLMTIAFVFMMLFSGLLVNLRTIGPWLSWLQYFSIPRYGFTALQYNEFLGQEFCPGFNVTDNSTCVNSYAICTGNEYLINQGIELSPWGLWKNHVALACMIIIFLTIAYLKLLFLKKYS

| Solid form identified by PXRD after 8 days ([4]; stored at 5° C.) | Solid form identified by PXRD after 8 days ([4]; stored at 70° C./75% RH) | Mass Gain at 25° C. and 90% RH [5] | Compound | physical stability under accelerated stability conditions [4] | Hygroscopicity [5] | BCRP efflux ratio (BCRP [6]) | also measured |
| --- | --- | --- | --- | --- | --- | --- | --- |
| amorphous compound 1, | crystalline anhydrous | approximately 3.6% | Cn1cnc2ccc(Nc3c(F)ccc(NS(=O)(=O)N4CC(F)C4)c3Cl)c(Cl)c2c1=O [amorphous Compound 1, Form 2, amorphous N-(2-chloro-3-((5-chloro-3-methyl-4-oxo-3,4-dihydroquinazolin-6-yl)amino)-4-fluorophenyl)-3-fluoroazetidine-1-sulfonamide, Form 2] | crystallized to crystalline anhydrous Compound 1, Form 1 | hygroscopic |  | Hygroscopicity ([5]; Form 2): Hygroscopic; Mass Gain at 25° C. and 60% RH ([5]; Form 2): 1.7%; Mass Gain at 25° C. and 90% RH ([5]; Form 2): 3.6%; PXRD Post-DVS ([5]; Form 2): amorphous Compound |
| crystalline anhydrous | crystalline anhydrous | 0.0% | Cn1cnc2ccc(Nc3c(F)ccc(NS(=O)(=O)N4CC(F)C4)c3Cl)c(Cl)c2c1=O [crystalline anhydrous Compound 1, Form 1, crystalline anhydrous N-(2-chloro-3-((5-chloro-3-methyl-4-oxo-3,4-dihydroquinazolin-6-yl)amino)-4-fluorophenyl)-3-fluoroazetidine-1-sulfonamide, Form 1] | stable | not hygroscopic; also recorded: Non-Hygroscopic |  | Mass Gain at 25° C. and 60% RH [5]: 0.0%; PXRD Post-DVS [5]: crystalline anhydrous |

Continued, compound first:

| Compound | Solid form identified by PXRD after 8 days ([4]; stored at 5° C.) | Solid form identified by PXRD after 8 days ([4]; stored at 70° C./75% RH) | Mass Gain at 25° C. and 90% RH [5] | physical stability under accelerated stability conditions [4] | Hygroscopicity [5] | BCRP efflux ratio (BCRP [6]) | also measured |
| --- | --- | --- | --- | --- | --- | --- | --- |
| Cn1cnc2ccc(Nc3c(F)ccc(NS(=O)(=O)N4CC(F)C4)c3Cl)c(Cl)c2c1=O [Compound 1, N-(2-chloro-3-((5-chloro-3-methyl-4-oxo-3,4-dihydroquinazolin-6-yl)amino)-4-fluorophenyl)-3-fluoroazetidine-1-sulfonamide] |  |  |  |  |  |  | IC50 [1]: 3 nM; substrate of active transporter P-glycoproteins (P-gp) (MDR1 (P-gp)): not a substrate; substrate of active transporter breast cancer resistance protein (BCRP) (BCRP [2]): not a substrate; Kp,uu (unbound brain-to-unbound plasma ratio) [3]: 0.12 to 0.17 |
| CC(C)(C)c1nc(-c2cccc(NS(=O)(=O)c3c(F)cccc3F)c2F)c(-c2ccnc(N)n2)s1 [dabrafenib] |  |  |  |  |  | 21.0 |  |
| CCCS(=O)(=O)Nc1ccc(F)c(C(=O)c2c[nH]c3ncc(-c4ccc(Cl)cc4)cc23)c1F [vemurafenib] |  |  |  |  |  | 495 |  |
